The values that follow come from US20230279482A1, “COMPOSITIONS, METHODS AND USES FOR QUANTIFYING TRANSCRIPTION AND BIOSENSING OF SMALL MOLECULES USING A NOVEL TYPE VI CRISPR-CAS ASSAY” (THE REGENTS OF THE UNIVERSITY OF COLORADO, A BODY CORPORATE, priority 2020, published 2023).

The subject of one assay is guanine riboswitch. Conditions: as low as; cited from earlier work.
Assay [1] concerns SPRINT assay without riboswitch (constitutively transcribed Cas13a target). The assay can be described thus: SPRINT control screen with constitutive promoter template (PAINS identification). Conditions: FIG. 9B.
Description: The master mix was gently mixed by pipetting up and down and incubated at 37° C. for 15 minutes to allow binding of crRNA to Cas13a protein and the microwell plate was prepared by adding 3 μL of 10× ligand to the wells. The reaction was initiated by addition of rNTPs to the master mix to a concentration of 20 μM and then 27 μL of the complete master mix were added to each well and pipetted up and down to mix with the ligand in the wells. The plate was covered with an optical adhesive film to prevent evaporation of the sample while taking fluorescence measurements in a plate reader that was preheated to 37° C.
The subject of another assay is bacteria. The note with it: cited from earlier work.
The test system of assay [2] is guanine riboswitch xpt/pbuE*6U. The assay can be described thus: SPRINT compound screen on guanine riboswitch. Format: biochemical. The note with it: 1 μM, FIG. 10. The method, then: Briefly, the transcriptional response of the guanine riboswitch xpt/pbuE*6U to 30 different compounds was measured at two different concentrations each (FIG. 9A and FIG. 10). The concentrations used were 10 μM and 1 mM for most compounds. The signal that was obtained from control experiments with the solvents DMSO or water was subtracted from all values.

The target of assay [3] is T1, tetR (Escherichia coli, UniProt P04483). The assay can be described thus: biochemical. How it is done:
In other exemplary methods, reactions with allosteric transcription factors (aTFs), ROSALIND reagent buffer (10× buffer containing, for assays contemplated herein, but not limited to: 400 mM Tris-HCl, pH 8.0, 200 mM NaCl, 20 mM spermidine, 100 mM DTT and 80 mM MgCl2) were used. The buffer was prepared fresh or stored as single-use aliquots at −80° C. […] The final concentration of the aTF monomers was either 2.5 μM tetR or 10 μM smtB. The master mix was incubated for 15 minutes at 37° C. which allows the aTFs to bind to the operator sequence.
In another exemplary method, bacterial transcription can be regulated by allosteric transcription factors (aTFs), such as activators or repressors, which have previously been used for small molecule detection. Another system (“ROSALIND”) enabled rapid detection of compounds via aTFs. […] The ROSALIND buffer system differs from the SPRINT or SHERLOCK buffer. Therefore, it was tested whether aTF-based ROSALIND reactions could be integrated with the Cas13a-based detection method. To simplify the system, the inorganic pyrophosphatase (IPPase) enzyme was first removed from the ROSALIND system. IPPase was used in transcription reactions to degrade pyrophosphate which was a reaction product of the RNA polymerase and can inhibit the reaction. […] Adaptions included reducing the concentrations of rNTP from 2.85 mM to 40 μM, DNA template from 25 to 15 nM, and T7 RNAP from 10 to 6.7 ng/μL.
The responses of the de-repressors tetR and smtB were measured with SPRINT.

Assay [4] concerns the target T1, tetR. The note with it: read-out: previously reported range; cited from earlier work.
The test system of another assay is metE riboswitch. The assay can be described thus: SPRINT assay with native metE OFF riboswitch (with heparin, single turnover). The note with it: OFF switch, heparin added, FIG. 7B; read-out: T50 value (reduction of transcriptional rate). Format: biochemical, B. subtilis. The method, then:
For amplification of the native metE riboswitch from the genome, the following protocol was used: Colony PCR was performed, using the oligos “metE_fwd” (SEQ ID NO: 13) and “metE_rev” (SEQ ID NO: 14) at Tm=64° C. with Q5 DNA polymerase. The constant 5′ and 3′ parts of the SPRINT constructs were also amplified via PCR reactions, using any plasmid with a complete SPRINT sequence as template. The 5′ constant part was amplified with oligos “InsulatorOligo_fwd” (SEQ ID NO:1) and “e.coliProm_rev” (SEQ ID NO: 8). The 3′ constant part was amplified with oligos “RiboswitchBB_fwd” (SEQ ID NO: 7) and “ssDNA1_rev” (SEQ ID NO: 2). […] The PCR product was purified, quantified and used for a SPRINT reaction.
In another exemplary method, certain riboswitches described herein were re-engineered for certain properties such as wide dynamic range and a ligand-induced “ON”. […] Initially, measurements at intermediate concentrations of SAM were difficult to quantify because the high rate of transcription from the B. subtilis metE OFF-switch required very high concentrations of SAM to repress the signal (FIG. 8). […]

Assay [5] has as its system S-adenosylmethionine (SAM)-responsive riboswitch yitJ/pbuE*6U. The assay can be described thus: SPRINT assay with SAM riboswitch. Conditions: FIG. 4A. Format: biochemical. The method, then:
SPRINT reactions. Pentauridine RNA oligonucleotides were labeled with carboxyfluorescein (FAM) or TEX 615 at the 5′-end and with Iowa Black FQ at the 3′-end. Fluorescence measurements were taken at wavelengths 490/525 nm (excitation/emission) when the FAM fluorophore was used. In reactions with flavin-containing ligands, TEX-labeled RNA oligos were used at the wavelengths 576/615 (excitation/emission). Fluorescence measurements were taken every 5 minutes.
For exemplary SPRINT assays, a master mix was first prepared and then mixed with the remaining reaction reagent components to yield a final reaction volume of 30 μL; fluorescent readings of the entire reaction volume were performed in Corning 384 Flat Bottom Black Polystyrol plates. This master mix (SPRINT buffer, 10×), for assays contemplated herein can include, but is not limited to: 700 mM Tris-HCl, pH 8.0, 700 mM NaCl, 1 mM EDTA, 140 mM β-mercaptoethanol, and 25 mM MgCl2. Aliquots of an exemplary 10× SPRINT buffer were stored at −20° C. and not allowed to undergo more than 10 freeze-thaw cycles.
In another exemplary method, to test the versatility of SPRINT, small-molecule dependent transcriptional regulation of various riboswitches was examined. […]

In assay [6] the target is T2, bacterial RNAP (Escherichia coli, UniProt P0A8V2). The note with it: cited from earlier work.
Target sequence in this assay (P0A8V2 whole entry): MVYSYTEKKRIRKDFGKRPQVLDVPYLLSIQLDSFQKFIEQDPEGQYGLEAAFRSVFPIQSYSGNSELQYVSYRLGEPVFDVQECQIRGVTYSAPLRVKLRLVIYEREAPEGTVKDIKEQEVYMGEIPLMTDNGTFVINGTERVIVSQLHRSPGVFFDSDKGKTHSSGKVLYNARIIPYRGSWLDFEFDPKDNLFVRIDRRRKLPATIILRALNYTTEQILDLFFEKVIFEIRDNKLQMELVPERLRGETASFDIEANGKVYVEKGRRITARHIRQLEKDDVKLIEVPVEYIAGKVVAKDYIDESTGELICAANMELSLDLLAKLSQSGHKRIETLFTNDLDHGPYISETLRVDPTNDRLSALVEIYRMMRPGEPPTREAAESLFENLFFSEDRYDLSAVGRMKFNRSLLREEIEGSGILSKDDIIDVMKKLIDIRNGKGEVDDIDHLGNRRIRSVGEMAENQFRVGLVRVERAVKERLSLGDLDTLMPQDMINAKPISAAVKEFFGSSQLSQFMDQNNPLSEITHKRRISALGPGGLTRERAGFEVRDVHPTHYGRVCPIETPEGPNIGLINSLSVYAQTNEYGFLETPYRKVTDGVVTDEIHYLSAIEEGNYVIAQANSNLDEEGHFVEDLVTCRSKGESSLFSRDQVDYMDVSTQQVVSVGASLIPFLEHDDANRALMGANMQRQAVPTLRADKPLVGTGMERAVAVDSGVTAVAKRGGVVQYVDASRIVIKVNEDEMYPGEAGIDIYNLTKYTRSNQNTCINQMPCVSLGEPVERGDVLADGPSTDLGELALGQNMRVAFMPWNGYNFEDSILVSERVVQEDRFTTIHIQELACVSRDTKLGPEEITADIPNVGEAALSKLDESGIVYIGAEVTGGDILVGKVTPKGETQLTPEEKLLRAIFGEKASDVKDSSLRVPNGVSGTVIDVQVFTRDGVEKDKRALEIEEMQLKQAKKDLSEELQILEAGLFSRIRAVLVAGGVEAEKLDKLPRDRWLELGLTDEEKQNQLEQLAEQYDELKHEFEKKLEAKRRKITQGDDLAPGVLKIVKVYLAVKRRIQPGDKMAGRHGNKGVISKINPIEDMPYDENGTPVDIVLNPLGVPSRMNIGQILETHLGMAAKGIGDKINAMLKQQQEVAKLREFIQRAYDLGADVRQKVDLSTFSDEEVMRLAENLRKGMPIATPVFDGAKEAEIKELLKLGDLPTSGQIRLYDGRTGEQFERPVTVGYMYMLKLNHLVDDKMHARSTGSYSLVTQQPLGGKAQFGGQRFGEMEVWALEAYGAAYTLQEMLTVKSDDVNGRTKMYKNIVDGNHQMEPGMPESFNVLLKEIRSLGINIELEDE
Target sequence in this assay (P0A8T7 whole entry partner): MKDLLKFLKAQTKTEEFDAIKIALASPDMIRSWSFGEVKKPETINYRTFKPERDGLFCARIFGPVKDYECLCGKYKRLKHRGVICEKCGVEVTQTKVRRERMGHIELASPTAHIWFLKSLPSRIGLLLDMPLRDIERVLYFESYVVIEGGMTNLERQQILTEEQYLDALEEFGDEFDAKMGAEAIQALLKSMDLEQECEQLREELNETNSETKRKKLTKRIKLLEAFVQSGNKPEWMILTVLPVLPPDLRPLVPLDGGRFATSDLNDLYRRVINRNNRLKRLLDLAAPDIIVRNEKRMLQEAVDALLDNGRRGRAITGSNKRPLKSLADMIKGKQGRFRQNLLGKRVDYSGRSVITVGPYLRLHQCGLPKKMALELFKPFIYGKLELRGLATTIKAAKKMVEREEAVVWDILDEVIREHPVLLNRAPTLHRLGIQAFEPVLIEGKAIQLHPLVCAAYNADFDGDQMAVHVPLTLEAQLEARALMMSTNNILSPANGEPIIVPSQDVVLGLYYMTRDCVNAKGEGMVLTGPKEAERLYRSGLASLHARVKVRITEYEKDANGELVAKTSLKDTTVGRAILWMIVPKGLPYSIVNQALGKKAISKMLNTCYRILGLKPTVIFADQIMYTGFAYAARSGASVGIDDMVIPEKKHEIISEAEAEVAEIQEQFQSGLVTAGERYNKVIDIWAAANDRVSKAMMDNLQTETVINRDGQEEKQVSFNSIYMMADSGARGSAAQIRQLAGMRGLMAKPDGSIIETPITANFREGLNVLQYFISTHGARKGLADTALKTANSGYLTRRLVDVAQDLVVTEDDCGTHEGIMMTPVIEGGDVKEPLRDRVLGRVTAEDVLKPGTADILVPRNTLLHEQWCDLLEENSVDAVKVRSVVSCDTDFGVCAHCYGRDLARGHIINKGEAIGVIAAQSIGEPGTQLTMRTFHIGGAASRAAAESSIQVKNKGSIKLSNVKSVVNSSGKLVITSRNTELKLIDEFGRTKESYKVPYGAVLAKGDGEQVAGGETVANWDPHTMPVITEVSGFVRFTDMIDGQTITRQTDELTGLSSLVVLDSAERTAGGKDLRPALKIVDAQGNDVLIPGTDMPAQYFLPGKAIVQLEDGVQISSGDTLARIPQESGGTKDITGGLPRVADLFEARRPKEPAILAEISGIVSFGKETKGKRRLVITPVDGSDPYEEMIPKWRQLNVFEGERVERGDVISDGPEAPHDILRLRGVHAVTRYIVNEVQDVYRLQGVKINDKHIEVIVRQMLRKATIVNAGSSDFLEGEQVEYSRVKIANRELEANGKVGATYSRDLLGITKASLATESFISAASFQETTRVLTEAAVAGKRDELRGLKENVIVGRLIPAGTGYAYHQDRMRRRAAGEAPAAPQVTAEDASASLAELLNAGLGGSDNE
Target sequence in this assay (P0A7Z4 whole entry partner): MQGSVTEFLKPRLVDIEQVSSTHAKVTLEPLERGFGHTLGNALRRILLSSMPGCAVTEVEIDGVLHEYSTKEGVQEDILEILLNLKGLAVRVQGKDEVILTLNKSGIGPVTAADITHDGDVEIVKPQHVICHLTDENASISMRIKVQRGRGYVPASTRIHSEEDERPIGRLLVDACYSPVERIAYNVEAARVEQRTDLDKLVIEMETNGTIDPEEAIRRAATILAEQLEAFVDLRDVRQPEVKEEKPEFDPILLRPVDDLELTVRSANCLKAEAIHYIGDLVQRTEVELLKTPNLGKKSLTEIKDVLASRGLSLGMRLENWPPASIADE
Target sequence in this assay (P0A800 whole entry partner): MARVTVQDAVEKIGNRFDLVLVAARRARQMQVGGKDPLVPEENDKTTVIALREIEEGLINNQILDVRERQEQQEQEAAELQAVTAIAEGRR
The target in assay [7] is T2, bacterial RNAP. The assay can be described thus: SPRINT rifampicin titration with constitutive promoter. Format: biochemical, E. coli.

Like-named read-outs stand apart in the source and are kept apart here.

T1 sequence (P04483 whole entry): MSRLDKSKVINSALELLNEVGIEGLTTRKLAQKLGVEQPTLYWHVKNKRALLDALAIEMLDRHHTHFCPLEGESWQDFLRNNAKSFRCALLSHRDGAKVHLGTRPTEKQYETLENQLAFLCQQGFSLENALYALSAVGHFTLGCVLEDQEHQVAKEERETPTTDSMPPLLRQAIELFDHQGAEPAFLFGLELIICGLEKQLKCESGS

`Nc1nc(N)c(N)c(=O)[nH]1` [2,5,6-TAP]: in the assay with guanine riboswitch, the “concentration at which it binds the guanine riboswitch” value is listed as no less than 100 nM. Besides, the “effect on enzymatic activity of the SPRINT assay at high concentration” value in [1] (100 μM, FIG. 10) was “completely shut down enzymatic activity”. The “interference with SPRINT assay (PAINS)” value in assay [1] (constitutive promoter template) is reported as “interfering compounds”. In addition, in the assay on bacteria, the “concentration with bactericidal properties” value is listed as 8 mM. Further, in [2], the “transcriptional activation at low concentration” value was “only slightly activated transcription”.

As to `Cc1c2c(c(O)c3c(O)cccc13)C(=O)[C@]1(O)C(=O)C(C(N)=O)=C(O)[C@@H](N(C)C)[C@@H]1C2` [anhydrotetracycline], the values for the EC50 on tetR [3] and on tetR [4] were 1900 ± 200 nM and 1000 to 2500 nM, respectively.

In the case of `C[S+](CC[C@H](N)C(=O)O)C[C@H]1O[C@@H](n2cnc3c(N)ncnc32)[C@H](O)[C@@H]1O` (some centres unmarked) [SAM, S-adenosylmethionine], in the assay on metE riboswitch, the EC50 is roughly 1000 nM. Also, the “response of SAM riboswitch to ligand” value in assay [5] is listed as “responsive”.

As usually defined, the Kd is a measure of binding affinity in units of concentration. What is called IC50 is the concentration at which inhibition is half-maximal. Lower therefore signals higher potency. Turning to `CO[C@H]1/C=C/O[C@@]2(C)Oc3c(C)c(O)c4c(O)c(c(/C=N/N5CCN(C)CC5)c(O)c4c3C2=O)NC(=O)/C(C)=C\C=C\[C@H](C)[C@H](O)[C@@H](C)[C@@H](O)[C@@H](C)[C@H](OC(C)=O)[C@@H]1C` [rifampicin], the Kd on bacterial RNAP [6] is 3 nM. Moreover, the IC50 against bacterial RNAP [7] was 5.9 ± 0.6 nM.
